Source: patent publication US9115159B2, “Phosphate compounds, a process for their preparation and pharmaceutical compositions containing them” (LES LABORATOIRES SERVIER, priority 2013, dated 2015)
Like-named read-outs stand apart in the source and are kept apart here.

Legend:
human Caco-2 cells = assay: In vitro test on human Caco-2 cells, cellular transport A to B; format: in vitro ADME; conditions: drug incubated and measured, 120 minutes; for Fabs (predicted absorbed fraction in humans), the drug after incubation of the drug: A to B, 1 or 3 μM
Experimental: (§1) The cellular transport from A to B (Apical to Basolateral) of the phosphate compounds of formula (I) and the compounds of formula (I′) (corresponding drugs) is studied in human Caco-2 cells. Each compound is deposited apically at 1 or 3 μM (in duplicate) and then incubated for 120 minutes.
(§2) Several samples are taken during the experiment; • apically: immediately after deposition (t=0) and at 120 minutes • basolaterally: at the end of the experiment (120 minutes)
(§3) The concentrations of the phosphate compound (prodrug) and/or of its hydroxylated homologue (drug) are determined by liquid chromatography coupled with mass spectrometric detection (LC-MS/MS). The limit of quantification for both entities is 2 ng/mL.
(§4) The apparent permeability (Papp) and the predicted absorbed fraction (Fabs) in humans are calculated for the prodrug, for the drug after incubation of the prodrug and for the drug after incubation of the drug (Hubatsch et al, Nat Protoc. 2007; 2(9), 2111-2119).
(§5) The experiment yield, which corresponds to the ratio (in percent) of the total amount of compound found at the end of the experiment versus that incubated, is also calculated.

[1] = as above; format: in vitro ADME; conditions: human, Caco-2, drug incubated and measured, A to B, 1 or 3 μM, read-out: Papp, the drug after incubation of the drug
Experimental: as §1, §2, §3, §4, §5

[2] = Pharmacokinetic profile / in vivo conversion after oral administration to SCID mice (plasma, LC-MS/MS); parameters: species or system female SCID mice; conditions: female, mouse, po, lipid formulation (PEG 300/ethanol/Phosal 50PG 30/10/60)
Experimental: The pharmacokinetic profile of the phosphate compounds of formula (I) is evaluated in a lipid formulation and in aqueous solution in female SCID mice. This is compared to the pharmacokinetic profile of compounds of formula (I′) in a lipid formulation. More specifically, 4-[{[3-(6-{[(3S)-3-(morpholin-4-ylmethyl)-3,4-dihydroisoquinolin-2(1H)-yl]-carbonyl}-1,3-benzodioxol-5-yl)-5,6,7,8-tetrahydroindolizin-1-yl]carbonyl}(phenyl)-amino]phenyl disodium phosphate (also referred to as the compound of Example 1) was tested and compared to N-(4-hydroxyphenyl)-3-{6-[((3S)-3-(4-morpholinylmethyl)-3,4-dihydro-2(1H)-isoquinolinyl)carbonyl]-1,3-benzodioxol-5-yl}-N-phenyl-5,6,7,8-tetrahydro-1-indolizine carboxamide (also referred to as the drug from Example 1).
The compound of Example 1 is prepared in a mixture of anhydrous ethanol/polyethylene glycol 300/water (10/40/50, v/v/v) intended for administration by the p.o. route. The study is carried out in 2 groups of SCID mice to which the compound of Example 1 is administered under the following conditions: • Group 1: 3 mg/kg p.o. (gavage, 10 mL/kg), • Group 2: 25 mg/kg p.o. (gavage, 10 mL/kg).
Blood samples are taken at the following points in time (3 samples per animal and 3 animals for each point in time): 0.25 hr, 0.5 hr, 1 hr, 2 hrs, 6 hrs and 24 hrs after oral administration.
The compound of Example 1 is also administered by the oral route in an aqueous medium to SCID mice, under the following conditions: • Group 1: 30 mg/kg p.o. dissolved in 1 mM sodium carbonate solution (gavage, 10 mL/kg), • Group 2: 100 mg/kg p.o. in water (gavage, 10 mL/kg).
Blood samples are taken at the following points in time (3 animals for each point in time and 1 sample per animal): 0.25 hr, 0.5 hr, 1 hr, 2 hrs, 4 hrs, 6 hrs and 24 hrs after oral administration.
For all formulations of the compound of Example 1, the blood thereby collected is centrifuged and the plasma is transferred to tubes containing 1M hydrochloric acid. The plasma concentrations of the phosphate compound (prodrug) and its hydroxylated homologue (drug) are determined simultaneously using a method of liquid chromatography coupled with mass spectrometric detection (TFC-LC-MS/MS). The limit of detection for both entities is 0.5 ng/mL.
The drug from Example 1 is prepared in a mixture of anhydrous ethanol/polyethylene glycol 300/water (10/40/50, v/v/v) intended for administration by the p.o. route. The study is carried out in several groups of SCID mice to which the drug from Example 1 is administered under the following conditions: • Group 1: 3 mg/kg p.o. (gavage, 10 mL/kg), • Group 2: 30 mg/kg p.o. (gavage, 10 mL/kg), • Group 3: 25 mg/kg p.o. (gavage, 10 mL/kg), • Group 4: 100 mg/kg p.o. (gavage, 10 mL/kg).
Blood samples are taken at the following points in time (3 animals for each point in time and 3 samples per animal for Groups 1-2 and 1 sample per animal for Groups 3 and 4): • p.o.: before administration and then 0.25 hr, 0.5 hr, 0.75 hr, 1 hr, 2 hrs, 4 hrs, 6 hrs, 8 hrs, 16 hrs and 24 hrs after oral administration at 3 and 30 mg/kg, • p.o.: 0.5 hr, 2 hrs, 6 hrs, 16 hrs and 24 hrs after oral administration at 25 mg/kg and 0.5 hr, 1 hr, 2 hrs, 6 hrs, 16 hrs, 30 hrs and 48 hrs after oral administration at 100 mg/kg.
The plasma from the blood samples collected after administration of the lipid formulations of the drug from the compound of Example 1 are analysed by liquid chromatography coupled with mass spectrometric detection. The limit of quantification of the drug from the compound of Example 1 is less than or equal to 0.5 ng/mL.
Non-compartmental pharmacokinetic analysis is carried out on the mean values of the plasma concentrations of the compounds tested. […]

[3] = Solubility in aqueous medium buffered to physiological pH (phosphate 0.33M, pH 7.4); format: physicochemical; conditions: phosphate 0.33M, pH = 7.4
Experimental: The solubilities of the compounds were also measured in a medium buffered to physiological pH (cf. Table 3).

[4] = tested on: cleaved (activated) form of caspase 3; assay: Quantification of the cleaved form of caspase 3 in vivo (MSD ELISA, RS4;11 xenograft tumour lysates); parameters: species or system mice (SCID strain); conditions: Table 2, 25 mg/kg oral, sampling time 2 hours, treated versus control mice
Experimental: The ability of the compounds of formula (I′) to activate caspase 3 is evaluated in a xenograft model of RS4;11 leukaemia cells.
1×10^7 RS4;11 cells are grafted sub-cutaneously into immunosuppressed mice (SCID strain). 25 to 30 days after the graft, the animals are treated orally with the various compounds. After treatment, the tumour masses are recovered and lysed, and the cleaved (activated) form of caspase 3 is quantified in the tumour lysates.
The quantification is carried out using the “Meso Scale Discovery (MSD) ELISA platform” test, which specifically assays the cleaved form of caspase 3. It is expressed in the form of an activation factor corresponding to the ratio between the quantity of cleaved caspase 3 in the treated mice divided by the quantity of cleaved caspase 3 in the control mice.
The ability of the compounds of formula (I) to activate caspase 3 is evaluated in a xenograft model of RS4;11 leukaemia cells in accordance with the protocol given in Example A2.

With `C[C@@H]1Cc2ccccc2CN1C(=O)c1cc2c(cc1-c1cc(C(=O)N(c3ccncc3)c3ccc(O)cc3)c3ccccn13)OCO2` [Drug from Example 5, N-(4-Hydroxyphenyl)-3-(6-{[(3R)-3-methyl-3,4-dihydroisoquinolin-2(1H)-yl]-carbonyl}-1,3-benzodioxol-5-yl)-N-(pyridin-4-yl)indolizine-1-carboxamide] the “Yield (experiment yield), the drug after incubation of the drug” value (“Yield (experiment yield), the drug” below) (human Caco-2 cells) was “Yield (%) = 34”, the “Fabs (predicted absorbed fraction in humans), the drug after incubation of the drug” value (human Caco-2 cells) was “Fabs (%) = 68” and the Papp A→B at 120 min [1] was 0.7 ×10⁻⁶ cm/s.
In the case of `Cc1c(N(C(=O)c2cc(-c3cc(Cl)ccc3C(=O)N3Cc4ccccc4C[C@H]3CN3CCOCC3)n(C)c2C)c2ccc(O)cc2)cc(C#N)n1C` [Drug from Example 20, 5-(5-Chloro-2-{[(3S)-3-(morpholin-4-ylmethyl)-3,4-dihydroisoquinolin-2(1H)-yl]carbonyl}phenyl)-N-(5-cyano-1,2-dimethyl-1H-pyrrol-3-yl)-N-(4-hydroxyphenyl)-1,2-dimethyl-1H-pyrrole-3-carboxamide], the AUC(0-t) ([2]; Drug from Example 20 administered 3 mg/kg p.o., read-out: AUCt, compound measured: Drug from Example 20) is reported as 55 ng·h/mL, the Cmax ([2]; Drug from Example 20 administered 3 mg/kg p.o., read-out: Cmax, compound measured: Drug from Example 20) is reported as 39 ng/mL and the Tmax ([2]; Drug from Example 20 administered 3 mg/kg p.o., read-out: Tmax, compound measured: Drug from Example 20) is reported as 1 h. For the same compound, the AUC(0-t) ([2]; Drug from Example 20 administered 25 mg/kg p.o., read-out: AUCt, compound measured: Drug from Example 20) was 10200 ng·h/mL, the Cmax ([2]; Drug from Example 20 administered 25 mg/kg p.o., read-out: Cmax, compound measured: Drug from Example 20) was 5520 ng/mL and the Tmax ([2]; Drug from Example 20 administered 25 mg/kg p.o., read-out: Tmax, compound measured: Drug from Example 20) was 2 h. The “Yield (experiment yield), the drug” value (human Caco-2 cells) was “Yield (%) = 91”, the “Fabs (predicted absorbed fraction in humans), the drug after incubation of the drug” value (human Caco-2 cells) was “Fabs (%) = 25” and the Papp A→B at 120 min [1] was 0.29 ×10⁻⁶ cm/s. For the same compound, the “Solubility at 10 μM” value [3] was “Soluble”, the “Solubility at 20 μM” value [3] was “Insoluble” and the “Solubility at 50 μM” value [3] was “Insoluble”. The “Solubility at 100 μM” value [3] was “Insoluble”.
In the case of `Cc1c(C(=O)N(c2ccc(O)cc2)c2cc(C#N)n(C)c2)cc(-c2cc(Cl)ccc2C(=O)N2Cc3ccccc3C[C@H]2CN2CCOCC2)n1C` [Drug from Example 21, 5-(5-Chloro-2-{[(3S)-3-(morpholin-4-ylmethyl)-3,4-dihydroisoquinolin-2(1H)-yl]carbonyl}phenyl)-N-(5-cyano-1-methyl-1H-pyrrol-3-yl)-N-(4-hydroxyphenyl)-1,2-dimethyl-1H-pyrrole-3-carboxamide], the “Yield (experiment yield), the drug” value (human Caco-2 cells) is reported as “Yield (%) = 82”, the “Fabs (predicted absorbed fraction in humans), the drug after incubation of the drug” value (human Caco-2 cells) is reported as “Fabs (%) = 24” and the Papp A→B at 120 min [1] is reported as 0.27 ×10⁻⁶ cm/s.
For `Cc1c(N(C(=O)c2cc(-c3cc(F)ccc3C(=O)N3Cc4ccccc4C[C@H]3CN3CCOCC3)n(C)c2C)c2ccc(O)cc2)cc(C#N)n1C` [Drug from Example 25, N-(5-Cyano-1,2-dimethyl-1H-pyrrol-3-yl)-5-(5-fluoro-2-{[(3S)-3-(morpholin-4-ylmethyl)-3,4-dihydroisoquinolin-2(1H)-yl]carbonyl}phenyl)-N-(4-hydroxyphenyl)-1,2-dimethyl-1H-pyrrole-3-carboxamide], the AUC(0-t) ([2]; Drug from Example 25 administered 3 mg/kg p.o., read-out: AUCt, compound measured: Drug from Example 25) was 37 ng·h/mL, the Cmax ([2]; Drug from Example 25 administered 3 mg/kg p.o., read-out: Cmax, compound measured: Drug from Example 25) was 33 ng/mL and the Tmax ([2]; Drug from Example 25 administered 3 mg/kg p.o., read-out: Tmax, compound measured: Drug from Example 25) was 1 h. The AUC(0-t) ([2]; Drug from Example 25 administered 25 mg/kg p.o., read-out: AUCt, compound measured: Drug from Example 25) was 5700 ng·h/mL, the Cmax ([2]; Drug from Example 25 administered 25 mg/kg p.o., read-out: Cmax, compound measured: Drug from Example 25) was 3000 ng/mL and the Tmax ([2]; Drug from Example 25 administered 25 mg/kg p.o., read-out: Tmax, compound measured: Drug from Example 25) was 1 h. For the same compound, the “Yield (experiment yield), the drug” value (human Caco-2 cells) was “Yield (%) = 100”, the “Fabs (predicted absorbed fraction in humans), the drug after incubation of the drug” value (human Caco-2 cells) was “Fabs (%) = 40” and the Papp A→B at 120 min [1] was 0.49 ×10⁻⁶ cm/s. The “Solubility at 10 μM” value [3] was “Soluble”, the “Solubility at 20 μM” value [3] was “Soluble” and the “Solubility at 50 μM” value [3] was “Insoluble”. The “Solubility at 100 μM” value [3] was “Insoluble”.
For `Cc1c(C(=O)N(c2ccc(OP(=O)([O-])[O-])cc2)c2cnn(C)c2)cc(-c2cc(F)ccc2C(=O)N2Cc3ccccc3C[C@H]2CN2CCOCC2)n1C.[Na+].[Na+]` [Example 15, 4-[{[5-(5-Fluoro-2-{[(3S)-3-(morpholin-4-ylmethyl)-3,4-dihydroisoquinolin-2(1H)-yl]carbonyl}phenyl)-1,2-dimethyl-1H-pyrrol-3-yl]carbonyl}(1-methyl-1H-pyrazol-4-yl)amino]phenyl disodium phosphate], the “Activation factor +/− S.E.M.” value [4] was 12.1 +/− 1.1.
